# Laboratory results from US20230172940A1, “METHODS OF EXTENDING LIFESPAN BY ADMINISTERING FERROPTOSIS INHIBITORS” (COLLABORATIVE MEDICINAL DEVELOPMENT, LLC, priority 2020, published 2023).
# Where “and” joins values, the source holds several entries; their conditions need not be identical. Equal values may be shown once. Marks after values point to notes of the source that are not given here.
# Experiments:
# [1] = tested on: dead cells within live C. elegans; assay: Visualization of cell death with propidium iodide; format: in vivo, Caenorhabditis elegans; conditions: for cell death (propidium iodide), preceding organismal death: aged cohorts or young animals treated with DEM, 4-day old and 6 and 8 day old adults; for cell death (animals with any dead cells): at 6 and 8 days of age
# Description: The red-fluorescent propidium iodide (PI)^o was used to visualize dead cells within live C. elegans after DEM treatment and during aging. Populations were incubated for 24 h at 25° C. with PI (a 10 μL volume of 0.25 mg/mL solution added to the bacterial lawn on 50 mm NGM plates) prior to the described age or with concurrent exposure to 10 mM DEM (as described above) and PI. For aging experiments^o animals were visualized at Day 6 and Day 8. Cohorts of live animals (i.e. showing spontaneous or touch-provoked movement) were isolated and mounted under glass coverslips on 2% agarose pads without anesthetic. Imaging were captures with on a Leica DMI3000B inverted microscope^o DsRed filter set and a DFC 3000G digital.
# Differences between the proportion of live animals with fluorescently labelled nuclei in control versus Lip-1 and SIH treatment, either aged or exposed to DEM, were compared using a z-test.
# C. elegans strain TJ1060 = assay: Lifespan determination; format: in vivo, Caenorhabditis elegans; conditions: for average increase in median lifespan: 8 independent replicates, 200 μM Lip-1 or 250 μM SIH; for effect on survival curve: in vivo
# Description: Lifespan was measured using established protocols. SIH was dissolved in neat dimethyl sulfoxide (DMSO; Sigma-Aldrich) then added to the molten NGM at 55° C. (to a final concentration of 250 μM SIH in 0.5% v/v DMSO). Lip-1 was dissolved in neat DMSO then added to the molten NGM at 55° C. (to a final concentration of 200 μM Lip-1 in 0.5% v/v DMSO). Media containing equivalent vehicle alone (0.5% v/v DMSO) was used for comparison. Standard overnight culture of the Escherichia coli (E. coli) strain OP50 was used as the food source.
# Lifespan data was collected at 25 (±1) ° C. using the temperature sensitive-sterile strain TJ1060 [spe-9(hc88); fer-15(b26)]. A synchronous population was obtained by transferring egg-laying adults to fresh plates at 16° C. for 2-3 hours. The adults were removed and the plates with eggs then transferred to 25° C. to ensure sterility. After 48 hours at 25° C., when worms were at the late L4/young adult stage, 25-35 nematodes were transferred to fresh plates containing either vehicle control, 250 μM SIH, or 200 μM Lip-1. All plates were coded to allowing blinding of the experimenter to the treatment regime during scoring. Nematodes were scored for survival at one to three-day intervals and transferred to freshly prepared plates as needed (2-5 days).
# It is well documented that differences are observed between independent measures of lifespan, with micro-environmental factors such as minor temperature fluctuations potentially resulting differences in median and maximum lifespan between replicates. After determining the optimal doses of 250 μM SIH and 200 μM Lip-1, respectively, cohorts of nematodes were compared in 8 independent replicates. As the number of worms measured is known to influence the likelihood of accurately observing differences in lifespan, the starting populations for all treatments within experiments were in excess of 70 individuals.
# [2] = 250 μM SIH, days of adulthood at 25 (±1)° C, single replicate experiments 1-8
# [3] = 200 μM Lip-1, days of adulthood at 25 (±1)° C, single replicate experiments 1-8
smiles,measurement,setting,value
"O=C(N/N=C/c1ccccc1O)c1ccncc1 [SIH, Salicylaldehyde isonicotinoyl hydrazone]","cell death (propidium iodide), preceding organismal death",[1],significantly attenuated
same,cell death (animals with any dead cells),[1],completely suppressed
same,"% median Ý, Mean of 8 replicates",C. elegans strain TJ1060; 250 μM SIH,+101%
same,"max lifespan, Mean of 8 replicates","C. elegans strain TJ1060; 250 μM SIH, 25 (±1)° C",22 days
same,"median lifespan, Mean of 8 replicates","C. elegans strain TJ1060; 250 μM SIH, 25 (±1)° C",16 days
same,max lifespan,C. elegans strain TJ1060; [2],19 days (2×) and 23 days and 20 days and 18 days and 24 days and 29 days and 26 days
same,median lifespan,C. elegans strain TJ1060; [2],14* days (4×) and 16* days (2×) and 17* days and 20* days
same,% median Ý (median lifespan vs control),"C. elegans strain TJ1060; 250 μM SIH, single replicate experiments 1-8",100% and 75% (2×) and 78% and 129% and 56% and 143% and 150%
same,average increase in median lifespan,C. elegans strain TJ1060,~100%
same,effect on survival curve,C. elegans strain TJ1060,extended mid-life with a squaring of the survival curve
"Clc1cccc(CNC2=Nc3ccccc3NC23CCNCC3)c1 [Lip-1, N-[(3-chlorophenyl)methyl]-spiro[piperidine-4,2′(1′H)-quinoxalin]-3′-amine]","cell death (propidium iodide), preceding organismal death",[1],significantly attenuated
same,cell death (animals with any dead cells),[1],completely suppressed
same,"% median Ý, Mean of 8 replicates",C. elegans strain TJ1060; 200 μM Lip-1,+72%
same,"max. lifespan, Mean of 8 replicates","C. elegans strain TJ1060; 200 μM Lip-1, 25 (±1)° C",25 days
same,"median lifespan, Mean of 8 replicates","C. elegans strain TJ1060; 200 μM Lip-1, 25 (±1)° C",13 days
same,max. lifespan,C. elegans strain TJ1060; [3],25 days (2×) and 20 days and 24 days (2×) and 26 days (2×) and 27 days
same,median lifespan,C. elegans strain TJ1060; [3],13* days and 11† days and 14* days (4×) and 12* days and 15* days
same,% median Ý (median lifespan vs control),"C. elegans strain TJ1060; 200 μM Lip-1, single replicate experiments 1-8",86% and 38% and 56% (2×) and 100% and 50% and 114% and 75%
same,average increase in median lifespan,C. elegans strain TJ1060,~70%
same,effect on survival curve,C. elegans strain TJ1060,primarily altered late life survival
